“Also recorded” adds a separate entry of the source.
Columns and labels:
stem cell = experiment: MTT cell viability assay; format: cell-based; conditions: treated for 5 days, sublethal dose
Description: The effect of HL156A, TMZ, and combined HL156A and temozolomide on the survival of cells was determined by 3-(4,5-dimethylthiazol-2-yl)-2,5-diphenyl tetrazolium bromide (MTT) assay. Cells were seeded in 96-well plates and incubated at 37° C. for 24 hours and treated with HL156A, TMZ, and the combination thereof for 5 days. MTT reagent (10 μl/well) was added, incubated at 37° C. for 4 hours and the absorbance was measured at 490 nm. Each experiment was repeated three times and the results were expressed as % viable cells over control.

[1] = tested on: AMPK and mTOR pathway of GSC11 and X01 cells; experiment: Western blotting of AMPK-mTOR pathway-related proteins; format: cell-based, human
Description: (§1) For Western blotting, 20 μg total protein from each sample was treated with Laemmli sample buffer and heated at 100° C. for 5 minutes. This was then loaded into each well and was resolved by 8% SDS-polyacrylamide gel electrophoresis (PAGE) and eleetroblotted onto nitrocellulose membranes (GE Healthcare life-Sciences). Membranes were blocked in 5% non-fat dry milk in TBS-T, and incubated with antibodies for AMPK-mTOR pathway-related proteins, stemness markers, and EMT-related markers overnight at 4° C., and then probed with peroxidase-conjugated goat anti-rabbit IgG (1:2000, santa cruz) for 1 hour at room temperature. The washes were repeated and the membrane was developed with a chemiluminescent agent (ECL; Amersham Life Science, Inc.). Band densities were measured using TINA image software (Raytest, Straubenhardt, Germany).

GSC11 and X01 cells = experiment: Neurosphere formation assay; format: cell-based, human; conditions: GSC11 and X01, cultured for 3 weeks
Description: For Neurosphere formation assay, the GSC11 and X01 cells were cultured in medium consisting of DMEM/F-12 with 2% 1×B27, 20 ng/ml 0.02% bFGF, 20 ng/ml 0.02% EGF, and 1% antibiotic-antimycotic solution (100×, Gibco, Invitrogen Korea, Seoul, South Korea). The cells were cultured in different conditions for 3 weeks. […] Photographs of cells were obtained with a digital camera (DP70 Digital Microscope Camera; Olympus), using DP Controller software (Olympus).

[2] = tested on: stemness markers such as nestin, CD133, Sox-2, Notch 1, Notch 2, and Oct3/4 in GSC11 or X01; experiment: Western blotting of stemness markers; format: cell-based, human
Description: as §1

GSC11 and X01 = experiment: Neuro-glial differentiation (neuronal marker expression); format: cell-based, human
G-GSC11 spheroids = experiment: 3D collagen I matrix invasion assay; format: cell-based, human
Description: The G-GSC11s grown in spheroid were cultured in collagen I matrices using polydimethylsiloxane (PDMS)-based micro-wells (diameter and depth of microwells: […] and 500 μm). The microwells were treated with a 1% poly(ethyleneimine) (Sigma-Aldrich, St. Louis, Mo., USA) solution for 10 minutes followed by 0.1% glutaraldehyde (Sigma-Aldrich, St. Louis, Mo., USA) for 30 minutes and washed with PBS overnight lo make PDMS wells adherent to collagen. The 4 mg/ml collagen I matrices are prepared from high-concentration rat tail collagen I (BD Bioscience, CA, USA) using the recommended manual provided by the manufacturer. Briefly, the amounts of 10× phosphate buffered saline (PBS), 1N NaOH, sterile dH2O, and collagen I were mixed to create gels based on the desired final concentration. The solution was well mixed and kept at 4° C. before use. To encapsulate G-GSC11 spheroid, 10 μl of a collagen I solution (4 mg/ml) were pipetted into the micro-well, single G-GSC11 spheroid was placed onto collagen I matrices from the culture plate, and 10 μl of a collagen I solution (4 mg/ml) was dropped onto G-GSC11 spheroid. The platform was incubated at 37° C. and 5% CO2 for 30 minutes. The cell viability was characterized by staining G-GSC11 spheroid with 8 μM Ethidium homodimer-1 (Invitrogen Korea, Seoul, South Korea) for 30 minutes at 37° C. before implantation in collagen matrix. After fall gelation, a superlayer of culture medium consisting of DMEM/F-12 with 2% 1×B27, 20 ng/ml 0.02% bFGF, 20 ng/ml 0.2% EGF, and 1% antibiotic-antimycotic solution (100× Gibco, Invitrogen Korea, Seoul, South Korea) was then added. To observe drug effects, drugs were mixed with medium considering the final concentration of each drug. […] To quantitate the invasion assay, the maximal area covered by migrating edges of cells was used as a parameter for defining invasiveness (invaded area at certain time/spheroid area at initial time×100). Data was analyzed through image analysis software ImageJ (NIH, Bethesda, Md., USA).

[3] = tested on: EMT-related markers such as β-catenin, zeb1, N-cadherin, and snail; experiment: Western blotting of EMT-related markers; format: cell-based, human; conditions: tumorspheres
Description: as §1

GSC11 = experiment: 18F-FDG uptake (cellular metabolism); format: cell-based, human; conditions: 15 minutes incubation, radioactivity normalized to protein content
Description: In order to assess the effect of drugs on the cellular metabolism, ^18F-FDG uptake was examined, GSC11 were plated on 12-well plates with 3×10^5 cells per well for 24 hours. The medium was changed to a glucose-free DMEM medium (Gibco, Invitrogen Korea, Seoul, South Korea) containing approximately 0.5 μCi of ^18F-FDG, followed by incubation for 15 minutes. The cells were washed with phosphate-buffered saline 3 times and 0.1 ml of lysis buffer was added to each well. The lysed cells were then harvested to measure the amount of radioactivity by Wallac 148 Wizard 3 gamma-counter (PerkinElmer Life and, Analytical Science, Shelton, Conn., USA). The radioactivity measured was normalized to protein content.

[4] = tested on: GSC11 orthotopic xenograft; experiment: Orthotopic xenograft mouse model; format: in vivo, male athymic nude mice; conditions: stained tumors
Description: Finally, the effect of the drags on the tumors of orthotopic xenograft mice was analyzed, 4- to 8-week-old male athymic nude mice (Central Lab. Animal Inc., Seoul, South Korea) were used for experiments. Mice were housed in micro-isolator cages under sterile conditions and observed for at least 1 week before study initiation to ensure proper health. Lighting, temperature, and humidity were controlled centrally. All experimental procedures were approved by Yonsei University College of Medicine Institutional Animal Care and Use Committee. Mice were anesthetized with a solution of Zoletil® (30 mg/kg; Virbac Korea, Seoul, South Korea) and xylazine (10 mg/kg; Bayer Korea, Seoul, South Korea) delivered intraperitoneally. GSC11 were implanted into the right frontal lobe of nude mice using a guide-screw system within the skull. Mice received 5×10^5 cells via a Hamilton syringe (Dongwoo Science Co., Seoul, South Korea) inserted to a depth of 4.5 mm. Then, 15 mg/kg of HL156A, 66.6 mg/kg of TMZ, and their combination were administrated to mice (n=5 per group). HL156A was given to mice by oral administration every other day until the duration of the experiment and TMZ was administrated intraperitoneally, for 5 days from the day of tumorsphere injection. The body weight of mice was checked every other day. […]

With `N=C(NC(=N)N1CCCC1)Nc1ccc(OC(F)(F)F)cc1` [HL156A, N—(N-(4-(trifluoromethoxy)phenyl)carbamimidoyl)pyrrolidine-1-carboximidamide] the “cell viability (% viable cells over control)” value (stem cell) was “minimal effect”, the “AMPK activation and consequent mTOR inhibition” value [1] was “did not show expected AMPK activation” and the number of neurospheres (GSC11 and X01 cells) was “markedly decreased”. For the same compound, the “expression of stemness markers (CD133, OCT 3/4, Sox-2, Notch 1, Notch 2)” value [2] was “Decreased expression”, the “neuro-glial differentiation (expression of olig2, Tuj1, GFAP)” value (GSC11 and X01) was “did not promote” and the “cell viability during the invasion experiment” value (G-GSC11 spheroids) was “no significant cell death”. The invasiveness (G-GSC11 spheroids; implanted cells and drugs together (FIG. 3A)) was “decreased invasiveness; also recorded: lesser degree of invasiveness”, the invasiveness (G-GSC11 spheroids; pre-implanted, drug treatment 12 hours after implantation (FIG. 3B)) was “decreased invasiveness” and the “expression of β-catenin, zeb1, and N-cadherin (EMT-related markers)” value [3] was “altered; also recorded: diminished”. The 18F-FDG uptake (GSC11) was “markedly decreased” and the “tumor margin versus control” value [4] was “less irregular margin”.

From patent publication US9539238B2, “Pharmaceutical composition comprising a biguanide derivative as an active ingredient for preventing or treating glioblastoma” (ImmunoMet Therapeutics, Inc., priority 2015, dated 2017)
